Experiments:
Homo sapiens = organism: Homo sapiens; assay: Binding affinity to human LDL assessed per mg of protein
HUVEC = assay: Antiinflammatory activity in HUVEC assessed as reduction in TNF-alpha induced ICAM1 protein expression at 5 uM incubated for 5 hrs followed by TNFalpha-induction and measured after 16 hrs by flow cytometric analysis relative to control; format: functional; details: Homo sapiens
[1] = Drug concentration in rat brain at 2 umol/kg, po after 2.5 hrs; format: ADME, organism-based; details: read-out: Ct
B16-F10 [2] = assay: Antitumor activity against […] cells xenografted in C57BL/6 mouse assessed as reduction in tumor volume at 3.2 mg/kg, po measured after 14 days post transfection relative to control; format: functional; details: 336 h
B16-F10 [3] = assay: Antitumor activity against […] cells xenografted in C57BL/6 mouse assessed as reduction in tumor weight at 3.2 mg/kg, po measured after 14 days post transfection relative to control; format: functional; details: 336 h
B16-F10 [4] = assay: Antitumor activity against […] cells xenografted in C57BL/6 mouse assessed as reduction in CXCL1 level at 3.2 mg/kg, po measured after 14 days post transfection relative to control; format: functional; details: 336 h
Caco-2 = assay: Antiproliferative activity against human Caco2 cells assessed as reduction in cell viability after 48 hrs by MTT assay; format: functional, cell-based; details: Caco-2, 48 h
[5] = Plasma concentration in rat at 2 uM/kg, po after 2.5 hrs; format: ADME, organism-based; details: in vivo
[6] = Drug concentration in rat brain cerebellum at […], po after 1 hr; format: ADME, organism-based; details: read-out: Ct
[7] = Drug concentration in rat brain cortex at […], po after 1 hr; format: ADME, organism-based; details: read-out: Ct

Bmax (Homo sapiens): 0.52 nmol
concentration at 2.5 h [1]: 20 ng/g
IC50 (Caco-2): 115 µM
Cp [5]: 200 nM
concentration at 1 h [6]: 90 ng/g
concentration at 1 h [7]: 50 ng/g
Structure (SMILES): O=C(O)C1=C/C(=C/C=[N+]2/CCC[C@H]2C(=O)[O-])C[C@@H](C(=O)O)N1
inhibition at 5 µM (HUVEC): -15%
inhibition in vivo at 3.2 mg/kg (B16-F10 [2]): 86%
inhibition in vivo at 3.2 mg/kg (B16-F10 [3]): 83%
inhibition in vivo at 3.2 mg/kg (B16-F10 [4]): 42%
